Marks after values point to notes of the source that are not given here.
What was measured:
[1] = Serum biomarkers in treated mice; assay type: in vivo, C57BL/6 mice; settings: 100 mg/Kg per day
Text: (§1) The C57BL/6 mice were maintained on a standard purified mouse diet (PicoLab 5053 Rodent Diet 20; Lab Diets) until they reached 2 months of age when the treatments started. The CR animals were subjected to a lifelong restriction on PicoLab 5053 Rodent Diet 20; Lab Diets, starting at 12 weeks of age, with a daily food allotment of 60% of that eaten by the ad lib animals. Besides CR animals, the C57BL/6 groups in this study were fed the standard high fat diet (HFD; 60 or 40% fat). Body weights were measured weekly at the same time each week. Food and water intake were measured once every month for 3-6 consecutive days at the same time each month. Water consumption was measured for 2 weeks prior to the start of administration. Compound was generated and modified for better permeability in to mitochondria, evaluated by HPLC, was 96%-97%. The administration began at 8 weeks of age and continued for 16 months, until they became 18-month-old. The drug solution was prepared weekly in small batches by dissolving the compound into autoclaved water at the respective doses and filtering sterilely. Aliquots were collected from each batch and measured by HPLC to confirm stability of the compound. Water bottles and cages were changed twice weekly. Fed and fasted blood samples were collected monthly at the same time each month from tail and used for glucose, insulin, blood cell counts, lipid analysis using assay kits (Robio, China) and HbA1C assay kit (Crystal chem, USA) following the manufacturer protocol. IPGTTs and ITTs were conducted throughout morning and early afternoon after fasting for 16-18 hrs. and 4 hrs., respectively, once before start of treatment administration began and every 3 months thereafter. Rectal body temperature was measured monthly, as described previously. Whole blood samples, and histopathology were analyzed after 14 months of treatment. Tissue samples were collected after 10-14 months from mice, sacrificed and used for WB and qPCR microarray, and other analyses. All animal studies were approved by the Shanghai Jiao Tong University Animal Studies Committee and were in accordance with NIH guidelines. (Number of mice; SD=30, HFD=10, CR=20).

[2] = test system: TNF-α, IL-6, CRP, leptin receptor, CD68 transcripts; assay: qPCR of inflammatory factors, macrophage pan marker and leptin receptor; assay type: in vivo, mouse
Description: (§2) Gene expression & RT qPCR Analyses. Total RNA was isolated using a commercially available kit (OMEGA bio-tek, R6812-02) according to the manufacturer's instructions. cDNA was generated using the PrimeScript RT reagent kit (TAKARA, RR047A). Gene expression were determined by qPCR as described in the product manual. The analysis was evaluated by Bio-Rad Real-Time System (CFX Connect™).
(§3) RNAs from 10 mice (5 treated and 5 Ctrl.) VF fat or livers were isolated by using omega Bio-Tek reagents, and cDNA was transcribed by (TAKARA). qPCR was then performed by using iQ SYBR Green mastermix bioscience on a CFX96 Real-Time System/C1000 Thermal Cycler (Bio-Rad).

mature 3T3-L1 cells = assay: 2-NBDG glucose uptake in matured adipocytes; assay type: cell-based; settings: highest concentration 50 μg/mL, vs insulin (control) and Rosiglitazone
Description: Second, adipocytes are the main site of insulin action and, thereby, play an important role in glucose metabolism as well as in the regulation of body glucose homeostasis. Therefore, the glucose uptake tests were evaluated on matured adipocytes to stimulate 2-NBDG (glucose) in the absence and presence of insulin and Rosiglitazone (insulin-sensitizer) and the higher insulin sensitivity was verified after treatment by the inhibitor.

[3] = test system: reactive oxygen species (ROS); assay: Serum ROS generation evaluation; assay type: in vivo, mouse; settings: blood plasma, after 14 months of treatment
AMPK, FOXO1, SIRT3 = assay: qPCR and immunoblotting of hepatic glucose metabolism and longevity markers; assay type: in vivo, mouse
Description: Immunoblotting analyses. Western blot analyses carried out in mouse livers, heart and adipose tissues collected from aged mice after treatments. Proteins (40 μg) were separated by electrophoresis on a sodium dodecyl sulfate (SDS) 4-20% polyacrylamide gel under reducing conditions. Membranes (Amersham Hybond PVDF, Germany) were probed overnight at 4° C. using Total OX-OPHOS Rodent cocktail (ab110413, USA), Complex IV, AMPK γ1, PGC-1α and Pparγ, FOXO1, TNF-α, IL-6 (USA, abCAM) and then incubated with polyclonal Goat anti-mouse IgG H&R (1:2000, ab6789, USA) in blocking buffer for 2 h at room temperature. To assure equal loading and/or to normalize protein content, the membrane blots were incubated with mouse anti-β-actin monoclonal antibody (mAbcam8227). Proteins were visualized using a chemiluminescence ECL Western blotting detection reagent (Bio-rad, USA). Quantification of protein was performed by chemiluminescence blot scanning (Quantity One™ version 4.6.3. Bio Rad).
as §2, §3

[4] = test system: UCP1, UCP2, CIDEA, Cox8b transcripts; assay: qPCR of thermoregulatory factors and beiging inducers; assay type: in vivo, mouse; settings: brown fat, after 14 months of treatment
Description: as §2, §3

3T3-L1 pre-adipocytes = assay: In vitro adipocyte differentiation (Oil Red O, protein blotting); assay type: cell-based
[5] = Intra-peritoneal glucose tolerance test (IPGTT); assay type: in vivo, C57BL/6 mice
Text: as §1, with “Fed and fasted blood samples were collected monthly at the same time each month from tail and used for glucose, insulin, blood cell counts, lipid analysis using assay kits (Robio, China) and HbA1C assay kit (Crystal chem, USA) following the manufacturer protocol. IPGTTs and ITTs were conducted throughout morning and early afternoon after fasting for 16-18 hrs. and 4 hrs., respectively, once before start of treatment administration began and every 3 months thereafter.” left out, “Tissue samples were collected after 10-14 months from mice, sacrificed and used for WB and qPCR microarray, and other analyses. All animal studies were approved by the Shanghai Jiao Tong University Animal Studies Committee and were in accordance with NIH guidelines. (Number of mice; SD=30, HFD=10, CR=20).” left out

[6] = DEXA body composition analysis and fat depot analysis; assay type: in vivo; settings: 14 month old mice
ATP production = assay: ATP level in liver of treated mice; assay type: in vivo, mouse
Text: Measurement of ATP level in liver. For measuring ATP, cellular ATP in livers was extracted using an ATP extraction kit of an ATP assay kit (Sigma-Aldrich, MAKI 90). The ATP level was quantitatively measured by the absorbance at 570 nm (A570).

[7] = visceral fat, 14 months old mice
[8] = liver, 14 months treatment (FIG. 6A)

Cc1ncsc1CCOC(=O)C[P+](c1ccccc1)(c1ccccc1)c1ccccc1.[Br-] [HG1a-1, (2-(2-(4-Methylthiazol-5-yl)Ethoxy)-2-Oxoethyl) Triphenylphosphonium Bromide]
glycated hemoglobin (Hb1Ac) levels vs control and calorie restriction ([1]; 12 months continuous treatment): lower | Cholesterol ([1]; serum, treated mice): 6.3 ± 0.9 mM/L | Glucose-fasted ([1]; serum, treated mice): 4.4 ± 0.2 mM | Glucose-fed ([1]; serum, treated mice): 6.5 ± 0.3 mM | Insulin ([1]; serum, treated mice): 2.34 ± 0.5 µg/L | Total protein ([1]; serum, treated mice): 5.89 ± 0.32 g dl^□−1 | Triglycerides ([1]; serum, treated mice): 1.00 ± 1*^ mM/L | % HbA1c ([1]; treated mice): 5.5 ± 0.5 % | leptin receptor transcript abundance increase ([2]; mouse livers): 2 fold | decline in abundance of CD68 ([2]; visceral fat): 5 fold | CRP transcript [2, 7]: trivial changes | IL-6 transcript [2, 7]: declined markedly | TNF-α transcript [2, 7]: declined markedly | 2-NBDG uptake (mature 3T3-L1 cells): notably higher | drop of ROS production [3]: ~4 fold | APMK amplified (AMPK, FOXO1, SIRT3; [8]): 5 fold | FOXO1 amplified (AMPK, FOXO1, SIRT3; [8]): 3 fold | SIRT3 amplified (AMPK, FOXO1, SIRT3; [8]): one-fold | enhanced deacetylation of FoxO-1 (AMPK, FOXO1, SIRT3; livers of treated mice): 3 fold | relative levels of phosphorylated AMPK increased (AMPK, FOXO1, SIRT3; livers of treated mice): 5 fold | SIRT-3 level (AMPK, FOXO1, SIRT3; treated group (FIG. 6A)): marked upgrade | CIDEA expression amplified [4]: one-fold | Cox8b expression amplified [4]: 7 fold | UCP2 expression amplified [4]: > one-fold | UPC1 expression increase [4]: 20 fold | adipocyte differentiation (3T3-L1 pre-adipocytes; 3T3-L1, up to 14 days): poorly differentiated, immature adipocytes | protein abundance of Pparγ (3T3-L1 pre-adipocytes; 3T3-L1 cells): significant reduction | glucose tolerance (IPGTT) ([5]; after 6 months): normal glucose tolerance | glucose tolerance (IPGTT) ([5]; young ages of 8 weeks and 12 weeks): mildly glucose-intolerant | gonadal adipose mass [6]: valid reduction | sub-scapular brown adipose mass [6]: minor effect | body fat mass ([6]; DEXA): recognizable decrease | lean mass ([6]; DEXA): trivial changes | decrease of ATP level in liver compared to controls (ATP production; 6 months): 50% | decrease of ATP level in liver compared to controls (ATP production; long term treated mice): 25%

Reference: patent US20220281902A1, “MIT[…] IMPROVE METABOLIC SYNDROME DURING AGING” (The Board of Trustees of the Leland Stanford Junior …, priority 2019, published 2022)
